Experimental data reported in patent publication US11998549B2, “Methods of treating a vascular leakage-associated disease or disorder” (UNITY HEALTH TORONTO, priority 2019, dated 2024).

Tests used:
[1] = system: human pulmonary microvascular endothelial cells (HPMECs); assay: FITC dextran permeability assay in HPMEC monolayer; format: cell-based; details: FITC-conjugated dextran
Text: Cultured endothelial cells are used to model the microvascular endothelium, because of the feasibility of performing complex molecular or pharmacological experiments to study cellular signalling pathways related to barrier function and integrity. In addition, the lung is the organ most often affected by sepsis induced-MODS. To determine the functional significance of G9a inhibition in human cells, solute permeability and electrical resistance across a confluent human pulmonary microvascular endothelial cell (HPMEC) monolayer was assessed. For both experiments HPMECs were seeded on 0.4 μm-pore polyester transwells (Costar) coated with Attachment Factor (Invitrogen), grown to confluency, and then […] with either UNC0462 or vehicle control.
FITC fluorescence was be measured at different time intervals in samples taken from the bottom compartment as a measure of paracellular dextran leak.

[2] = system: LPS-induced vascular leakage; assay: Vascular leakage (leaked red blood cells in tailfin) in LPS-treated zebrafish larvae; format: in vivo
Protocol: (§1) An LPS induced zebrafish sepsis model which mimics the hallmarks of human sepsis was developed (Philip et al., 2017). Zebrafish show varied susceptibility and responsiveness to LPS from different bacterial strains. Exposure of zebrafish larvae at 3 days post-fertilization (dpf) to two types of LPS (LPS from Escherichia coli 0111:B4 (Sigma) at 100 μg/ml for 5-6 hrs; or LPS from Salmonella at 27 μg/ml for 24 hrs) were both effective in inducing tail fin swelling, increased ROS production, increased vascular leakage and increased mortality.
3 dpf Tg (flk1:GFP; gata-1:Dsred) double transgenic larvae were exposed to Vehicle, LPS (100 μg/ml) or LPS+1 μM UNC0642 by static immersion for 6 h at 28.5° C. to induce endothe-lial dysfunction and the resulting leakage of red blood cells. The larvae were then imaged using a Leica fluorescence microscope (Leica Microsystems, Wetzlar, Germany). Red blood cells that leaked out into the tailfin region were quantified.
3 dpf larvae were exposed to LPS by immersion technique. […] Control larvae were exposed to egg water. Survival numbers were recorded and EC50s calculated. The percentage (%) of embryos showing vascular leakage was also recorded and 1050s calculated.

[3] = system: Beas2b human airway epithelial cells; assay: TNFα-induced ROS production (DCF assay) in beas2b cells; format: cell-based; details: TNFα 10 ng/mL, 24 hr
Protocol: Beas2b human airway epithelial cells were grown to 70% confluency. Cells were treated with TNFα (10 ng/mL) or an equal volume of nuclease-free water in the presence of 0, 0.25, 2.5, or 25 nM of UNC0642. Cell lysates were collected in 1×PBS after 24 hr and freeze-thawed twice to lyse the cells completely. In vitro ROS was measured using OxiSelect In Vitro ROS/RNS Assay Kit with DCF standard. ROS (nM) was calculated from the standard curve and values were normalized by total amount of protein (as measured by Bradford assay). Values are expressed as mean+/−SEM (average of two experimental replicates).

[4] = system: cellular junction protein transcript levels; assay: Quantitative RT-PCR of cellular junction proteins in zebrafish sepsis model; format: in vivo; details: 3 dpf larvae, LPS 27 μg/ml (Salmonella) + 1 μM UNC0642, 24 h
Text: (§2) Quantitative reverse transcription polymerase chain reaction (RT-PCR) was used to assess relative expression of cytokines (an average of 3 trials, each trial with a pool of 20 larvae/treatment) and cellular junction proteins (an average of 3 trials, each trial with a pool of 20 larvae/treatment), using elongation factor 1 a (EF1a) as the housekeeping gene control. […] UNC0642 reverses LPS induced reduction in the transcript levels of cellular junction proteins, namely occludin a, occludin b and ZO-1. UNC0642 also upregulates cellular junction protein transcript levels of occludin b, claudin 5a, claudin 5b and claudin 2, potentially improving vascular stability.
(§3) RNA extraction and cDNA synthesis. Wildtype zebrafish larvae (3 dpf) were exposed to Vehicle, LPS (27 μg/ml; LPS from Salmonella) or LPS+1 μM UNC0642 by static immersion for 24 h. Total RNA was extracted from these larvae (pool of 20 larvae/treatment) using the RNeasy extraction kit (Qiagen™, Mississauga, Ontario, Canada) and treated with DNase. The concentration of total RNA was determined spectrophotometrically at 260/280 nm using a NanoDrop™ spectrophotometer. […]
(§4) PCR conditions. […] The primers are not listed, since suitable primers will be readily apparent to the skilled person.

[5] = system: LPS-induced tailfin edema; assay: Tailfin edema in LPS-treated zebrafish larvae; format: in vivo
Protocol: as §1

[6] = system: IL-1, IL-6, TNFα and IL811 transcript levels; assay: Quantitative RT-PCR of pro-inflammatory cytokines in zebrafish sepsis model; format: in vivo; details: 3 dpf larvae, LPS 27 μg/ml (Salmonella) + 1 μM UNC0642, 24 h
Text: as §2, §3, §4

For `COc1cc2c(NC3CCN(C(C)C)CC3)nc(N3CCC(F)(F)CC3)nc2cc1OCCCN1CCCC1` [UNC0642, 2-(4,4-Difluoropiperidin-1-yl)-6-methoxy-N-[1-(propan-2-yl)piperidin-4-yl]-7-(3-(pyrrolidin-1-yl)propoxy]quinazolin-4-amine], the “LPS-induced endothelial barrier dysfunction (increased dextran leakage)” value [1] was “significantly mitigate”, the LPS-induced vascular leakage ([2]; 3 dpf larvae, LPS 100 μg/ml + 1 μM UNC0642, 6 h, leaked red blood cells at tail fin) was “significantly reduced” and the “Rescue of sepsis-associated vascular leakage” value ([2]; comparison of UNC0642 and A366, zebrafish larvae, 27 μg/ml LPS, 24 h) was “able to rescue”. For the same compound, the “TNFα-induced increased ROS production” value [3] was “significantly lowered”, the “LPS induced reduction in transcript levels of occludin a, occludin b and ZO-1” value [4] was “reverses” and the “Transcript levels of occludin b, claudin 5a, claudin 5b and claudin 2” value [4] was “upregulates”. For the same compound, the LPS-induced tailfin edema [5] was “significantly reduced” and the “LPS induced increases in transcript levels of pro-inflammatory cytokines IL-1, IL-6, TNFα and IL811” value [6] was “significantly mitigates”.
